This assay concerns the target T1, full length SGK1 (Homo sapiens, UniProt O00141).
T1 construct: 125 μM full length SGK1 (Life Technologies Part #PR7358A); purchased Life Technologies PR7358A
T1 sequence (O00141 1-431): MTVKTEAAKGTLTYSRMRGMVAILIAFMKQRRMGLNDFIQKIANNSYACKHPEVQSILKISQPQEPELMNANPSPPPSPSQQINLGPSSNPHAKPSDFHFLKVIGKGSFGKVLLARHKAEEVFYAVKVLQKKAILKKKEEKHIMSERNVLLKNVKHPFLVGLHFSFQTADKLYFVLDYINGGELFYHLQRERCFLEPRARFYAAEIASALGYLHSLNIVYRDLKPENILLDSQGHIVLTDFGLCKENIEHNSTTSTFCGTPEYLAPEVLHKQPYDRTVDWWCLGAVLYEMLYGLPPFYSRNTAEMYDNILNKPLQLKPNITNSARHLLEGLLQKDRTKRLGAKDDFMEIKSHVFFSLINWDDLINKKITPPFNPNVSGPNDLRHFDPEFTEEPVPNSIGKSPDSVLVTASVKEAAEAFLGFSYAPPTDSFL
As to the kind of experiment: SGK1 inhibition Assay A (Caliper LabChip electrophoretic separation of fluorescent peptide substrate and phosphorylated product). In kind it is biochemical. The following applies: Assay A; 20 μM ATP, 40 min incubation; read-out: SGK1 IC50.

Consider 19 molecules from patent US20260250290A1 (BRISTOL-MYERS SQUIBB COMPANY, priority 2023, published 2026).

As to `CC(=O)N1CC=C(c2cc(N3CCC[C@@H](NC(=O)c4sc(Cl)cc4OCC4CCNCC4)C3)c3c(N)ncnn23)C1` [Example 640, (R)-N-(1-(7-(1-acetyl-2,5-dihydro-1H-pyrrol-3-yl)-4-aminopyrrolo[2,1-f][1,2,4]triazin-5-y1)piperidin-3-y1)-5-chloro-3-(piperidin-4-ylmethoxy)thiophene~2-carboxamide], the IC50 (commonly the concentration needed to halve the response being measured) was determined as 8 nM.

As for `N#Cc1ccc(-c2cc(N3CCC[C@@H](NC(=O)c4sc(Cl)cc4OCC4CCNCC4)C3)c3c(N)ncnn23)cn1` [Example 641, (R)-N-(1-(4-amino-7-(6~cyanopyridin-3-y1)pyrrolo[2,1-f][1,2,4]triazin-5-y1)piperidin-3-yl)-5-chloro-3-(piperidin-4-ylmethoxy)thiophene-2-carboxamide], the IC50 was 0.9 nM.

Consider `NC(=O)c1ccc(-c2cc(N3CCC[C@@H](NC(=O)c4sc(Cl)cc4OCC4CCNCC4)C3)c3c(N)ncnn23)cc1F` [Example 642, (R)-N-(1-(4-amino-7-(4-carbamoyl-3-fluorophenyl)pyrrolo[2,1-f][1,2,4]triazin-5-y1)piperidin-3-y1)-5-chloro-3-(piperidin-4-ylmethoxy)thiophene-2-carboxamide], for which the IC50 was found to be 4 nM.

With `CN1CCC(COc2cc(Cl)sc2C(=O)N[C@@H]2CCCN(c3cc(-c4cncnc4)n4ncnc(N)c34)C2)CC1` [Example 643, (R)-N-(1-(4-amino-7-(pyrimidin-5-yl)pyrrolo[2,1-f][1,2,4]triazin-5-y1)piperidin-3-y1)-5-chloro-3-((1-methylpiperidin-4-yl)methoxy)thiophene-2-carboxamide], the IC50 was 8 nM.

Take `NC(=O)c1ccc(-c2cc(N3CCC[C@@H](NC(=O)c4sc(Cl)cc4OCC4CCNCC4)C3)c3c(N)ncnn23)cn1` [Example 644, (R)-5-(4-amino-5-(3-(5-chloro-3-(piperidin-4-ylmethoxy)thiophene-2-carboxamido)piperidin-1-y1)pyrrolo[2,1-f][1,2,4]triazin-7-y1)picolinamide]: the IC50 came out at 0.4 nM.

For the molecule `Nc1ncnn2c(-c3ccnc(C(F)F)c3)cc(N3CCC[C@@H](NC(=O)c4cc5ccccc5s4)C3)c12` [Example 645, (R)-N-(1-(4-amino-7-(2-(difluoromethyl)pyridin-4-y1)pyrrolo[2,1-f][1,2,4]triazin-5-y1)piperidin-3-yl)benzo[b]thiophene-2-carboxamide], the IC50 came out at 4 nM.

For `Nc1ncnn2c(-c3cncnc3)cc(N3CCC[C@@H](NC(=O)c4cc5ccccc5s4)C3)c12` [Example 646, (R)-N-(1-(4-amino-7-(pyrimidin-5-yl)pyrrolo[2,1-f][1,2,4]triazin-5-yl)piperidin-3-yl)benzo[b]thiophene-2-carboxamide], the IC50 came to 8 nM.

With `N#Cc1ccc(-c2cc(N3CCC[C@@H](NC(=O)c4nc5ccccc5s4)C3)c3c(N)ncnn23)cn1` [Example 647, (R)-N-(1-(4-amino-7-(6-cyanopyridin-3-yl)pyrrolo[2,1-f][1,2,4]triazin-5-yl)piperidin-3-yl)benzo[d]thiazole-2-carboxamide], the IC50 turned out to be 63 nM.

Consider `N#Cc1ccc(-c2cc(N3CCC[C@@H](NC(=O)c4n[nH]c5ccccc45)C3)c3c(N)ncnn23)cn1` [Example 648, (R)-N-(1-(4-amino-7-(6-cyanopyridin-3-yl)pyrrolo[2,1-f][1,2,4]triazin-5-yl)piperidin-3-y1)-1H-indazole-3-carboxamide], for which the IC50 turned out to be 104 nM.

Take `N#Cc1ccc(-c2cc(N3CCC[C@@H](NC(=O)c4cc5ccccc5o4)C3)c3c(N)ncnn23)cn1` [Example 649]: the half-maximal inhibitory concentration (IC50) amounted to 6 nM.

For the molecule `N#Cc1ccc(-c2cc(N3CCC[C@@H](NC(=O)c4nc5ccccc5o4)C3)c3c(N)ncnn23)cn1` [Example 650, (R)-N-(1-(4-amino-7-(6-cyanopyridin-3-yl)pyrrolo[2,1-f][1,2,4]triazin-5-yl)piperidin-3-yl)benzo[d]oxazole-2-carboxamide], the IC50 amounted to 54 nM.

In the case of `COC(=O)N1CC=C(c2cc(N3CCC[C@@H](NC(=O)c4sc5ccccc5c4OC4CCN(C(=O)OC(C)(C)C)CC4)C3)c3c(N)ncnn23)C1` [Example 651, ter-butyl (R)-4-((2-((1-(4-amino-7-(1-(methoxycarbonyl)-2,5-dihydro-1H-pyrrol-3-yl)pyrrolo[2,1-f][1,2,4]triazin-5-yl)piperidin-3-yl)carbamoyl)benzo[b]thiophen-3-yl)oxy)piperidine-1-carboxylate], the half-maximal inhibitory concentration (IC50) is 100 nM.

For `COC(=O)N1CC=C(c2cc(N3CCC[C@@H](NC(=O)c4sc5ccccc5c4OC4CCNCC4)C3)c3c(N)ncnn23)C1` [Example 652, methyl (R)-3-(4-amino-5-(3-(3-(piperidin-4-yloxy)benzo[b]thiophene-2-carboxamido)piperidin-1-yl)pyrrolo[2,1-f][1,2,4]triazin-7-yl)-2,5-dihydro-1H-pyrrole-1-carboxylate], the IC50 is 10 nM.

With `CC(=O)N1CC=C(c2cc(N3CCC[C@@H](NC(=O)c4sc5ccccc5c4OC4CCN(C(=O)OC(C)(C)C)CC4)C3)c3c(N)ncnn23)C1` [Example 653, tert-butyl (R)-4-((2-((1-(7-(1-acetyl-2,5-dihydro-1H-pyrrol-3-yl)-4-aminopyrrolo[2,1-f][1,2,4]triazin-5-yl)piperidin-3-yl)carbamoyl)benzo[b]thiophen-3-yl)oxy)piperidine-1-carboxylate], the IC50 was determined as 51 nM.

Regarding `CC(C)(C)OC(=O)N1CCC(Oc2c(C(=O)N[C@@H]3CCCN(c4cc(-c5ccc(C#N)nc5)n5ncnc(N)c45)C3)sc3ccccc23)CC1` [Example 654, tert-butyl (R)-4-((2-((1-(4-amino-7-(6-cyanopyridin-3-yl)pyrrolo[2,1-f][1,2,4]triazin-5-yl)piperidin-3-yl)carbamoyl)benzo[b]thiophen-3-yl)oxy)piperidine-1-carboxylate], the IC50 came out at 57 nM.

For the molecule `CC(=O)N1CC=C(c2cc(N3CCC[C@@H](NC(=O)c4sc5ccccc5c4OC4CCNCC4)C3)c3c(N)ncnn23)C1` [Example 655, (R)—N-(1-(7-(1-acetyl-2,5-dihydro-1H-pyrrol-3-yl)-4-aminopyrrolo[2,1-f][1,2,4]triazin-5-yl)piperidin-3-yl)-3-(piperidin-4-yloxy)benzo[b]thiophene-2-carboxamide], the IC50 was 9 nM.

On to `N#Cc1ccc(-c2cc(N3CCC[C@@H](NC(=O)c4sc5ccccc5c4OC4CCNCC4)C3)c3c(N)ncnn23)cn1` [Example 656, (R)—N-(1-(4-amino-7-(6-cyanopyridin-3-yl)pyrrolo[2,1-f][1,2,4]triazin-5-yl)piperidin-3-yl)-3-(piperidin-4-yloxy)benzo[b]thiophene-2-carboxamide], for which the IC50 stood at 3 nM.

Regarding `Nc1ncnn2c(-c3cncnc3)cc(N3CCC[C@@H](NC(=O)c4sc5ccccc5c4OC4CCNCC4)C3)c12` [Example 657, (R)—N-(1-(4-amino-7-(pyrimidin-5-yl)pyrrolo[2,1-f][1,2,4]triazin-5-yl)piperidin-3-yl)-3-(piperidin-4-yloxy)benzo[b]thiophene-2-carboxamide], the IC50 was determined as 51 nM.

For `COC(=O)N1CC=C(c2cc(N3CCC[C@@H](NC(=O)c4sc5ccccc5c4OC4CCN(C)CC4)C3)c3c(N)ncnn23)C1` [Example 658, methyl (R)-3-(4-amino-5-(3-(3-((1-methylpiperidin-4-yl)oxy)benzo[b]thiophene-2-carboxamido)piperidin-1-yl)pyrrolo[2,1-f][1,2,4]triazin-7-yl)-2,5-dihydro-1H-pyrrole-1-carboxylate], the IC50 came out at 18 nM.
